Experimental data from patent US8673336B2, “Composition, system, and method for modulating release kinetics in implantable drug delivery devices by modifying drug solubility” (Innovational Holdings LLC, priority 2005, dated 2014).
Counter-ions that a name gives are not always drawn.

Columns and labels:
[1] = in vitro cumulative release from low dose imatinib stents (PLGA 85/15 matrix, base and cap); type: physicochemical; conditions: about 160 micrograms per 16 mm stent, average of three stents
Experimental: The imatinib free-base (slow release) and the imatinib meslate salt (Gleevec) were loaded into holes in stents in a polymer matrix of PLGA 85/15 with a PLGA 85/15 base and cap and the release from the stents was recorded in FIG. 1. A solvent such as NMP or anisol was used to deposit the drug/polymer compositions and then evaporated. The releases shown in FIG. 1 are the average of three stents each. Methods and systems for depositing polymers and drugs within holes in stents are described further in WO 2004/026182 which is incorporated herein by reference.
The dosage for this example was about 160 micrograms normalized for a 16 mm long stent. The free base and salt forms where then combined in the ratios of 86:14, 66:34, and 46:54 and it was shown that the rate of the release (solubility of the drug) is proportional to the percentage of free base or salt. Thus, the selection of a percentage of free base and salt can be used to provide a selected drug release kinetic.
The addition of the free-base form allows the release to be extended past 48 hours to about 72 hours for a formulation of 46% free base and to about 120 hours for a formulation of about 66% free base. While a formulation with 86% free base continues to release imatinib in-vitro at 168 hours and beyond.

[2] = effect of counter ions on in vitro release of imatinib from stents; type: physicochemical; conditions: total drug load 150 μg to 200 μg; PLA-PLC base and cap, PLGA matrix
Experimental: FIG. 4 illustrates the effect of several counter ions on the in vitro release of a drug, in this example imatinib. Total drug load was 150 μg to 200 μg. PLA-PLC was used in the base and cap while the matrix containing the drug was PLGA as in Examples 1 and 2.

Row | time until release is essentially complete / extent of release duration (FIG. 1) [1] | rate of release from stents (FIG. 1) ([1]; listed as salt) | rate of release from stents (FIG. 1) [1] | Structure (SMILES) | cumulative in vitro release (FIG. 4) [2]
1 | about 48 hours | fastest release | – | Cc1ccc(NC(=O)c2ccc(CN3CCN(C)CC3)cc2)cc1Nc1nccc(-c2cccnc2)n1 [imatinib mesylate] | significantly higher cumulative release, relatively quickly, than imatinib salicylate
2 | – | – | – | Cc1ccc(NC(=O)c2ccc(CN3CCN(C)CC3)cc2)cc1Nc1nccc(-c2cccnc2)n1.O=C(O)c1ccccc1O [imatinib salicylate] | significantly higher that that of imatinib
3 | – | – | slowest release | Cc1ccc(NC(=O)c2ccc(CN3CCN(C)CC3)cc2)cc1Nc1nccc(-c2cccnc2)n1 [free base, imatinib] | –
